# Measured values taken from PMC12491701, “Discovery of an APP-selective BACE1 inhibitor for Alzheimer's disease” (Neurotherapeutics, 2025).
# Columns and labels:
# [1] = Pilot PK of FAH65 vs. verubecestat in rats; assay type: in vivo, rat; conditions: oral gavage, 30 mg/kg
# [2] = PK of FAH65E(-) in ApoE4-TR:5xFAD mice; assay type: in vivo, mouse; conditions: 30 mkd oral, from brain Fu
# Protocol: A PK/PD study of FAH65E(-) hydrochloride was performed using ApoE4-TR:5xFAD mice that express APOE4 under the control of the endogenous mouse APOE promoter crossed to 5xFAD mice (Tg6799) which co-express five FAD mutations (APP K670 N/M671L + I716V + V717I and PS1 M146L + L286V) under the control of the neuron-specific mouse Thy-1 promoter. The resulting mice, on a 97 % C57Bl/6J and 3 % SJL background, are homozygous for APOE4 and hemizygous for the 5XFAD transgenes. Both male and female mice 6–8 months of age were used. Mice received two doses (a.m. and p.m.) of 30 mg/kg FAH65E(-) by oral gavage on day 1; on day 2, after a single dose (a.m.) mice were euthanized at 1, 2, 4 and 6 h, n = 3 per time point. FAH65 and sAPPβ levels in brain were determined in brain tissue by LC-MS (see Supplementary Methods) and ELISA , respectively.
smiles,measurement,setting,value
Cc1cc(C2(c3cccc(-c4cncnc4)c3)N=C(N)N(C)C2=O)ccc1OC(F)F (stereo not drawn) [FAH65],Cmax,"[1]; both sexes, Sprague-Dawley, rat, brain",182 ng/g
same,time of brain Cmax,[1],2 h
same,Unbound brain concentration at Cmax,[2],9.6 nM
